From PMC5905603, “Purification and characterisation of a quorum quenching AHL-lactonase from the endophytic bacterium Enterobacter sp. CS66” (FEMS Microbiology Letters, 2018)

The compounds below were run on T1, AiiE (assay: phenol red proton-release assay (A557), Lineweaver-Burk). Details: 1 mM HEPES, 200 mM NaCl, 50 uM phenol red, pH 7.5.
T1 construct: full-length ORF (ca. 750 bp) in pET-19m, E. coli Rosetta DE3; His6 tag cut off by TEV; 240B1
Format: biochemical, Enterobacter sp. CS66
Excerpt: phenol red proton-release assay (A557), Lineweaver-Burk on AiiE

| Compound | Km [mM] |
| --- | --- |
| CCCC(=O)N[C@H]1CCOC1=O [C4-HSL] | 6.01 |
| CCCCCC(=O)N[C@H]1CCOC1=O [C6-HSL] | 7.88 |
| CCCCCCCC(=O)N[C@H]1CCOC1=O [C8-HSL] | 10.3 |
| CCCCCCCCCC(=O)N[C@H]1CCOC1=O [C10-HSL] | 14.9 |
| CCCCCCCCCCCC(=O)N[C@H]1CCOC1=O [C12-HSL] | 15.2 |
